Where two headings read alike, the source gives them in different places.

The conditions of data set [1]: cited from earlier work.
Data set [2] in a line: Absorbance and fluorescence of fluorophore/HSA conjugates in solution. The note with it: pH 7.4; free acid 10 micromolar, conjugates 1 micromolar. Format: physicochemical.
Excerpt: A 10 micromolar solution of SNAFL-1 acid (obtained from Molecular Probes) at pH 7 was used as a standard to more accurately determine the average loading of SNAFL-1 per each HSA conjugate preparation.
Excitation conditions are reported for each fluorescence spectrum (3000 msec irradiation at the indicated wavelength).
The Ocean Optics halogen light source was equipped with a 532 nm interference filter (Edmund Optics, Barrington, N.J.) and this allowed the fluorescent isosbestic point at 572 nm for pH 6-7 to be detected.
Data set [3] in a line: Absorbance and emission spectra versus pH of SNAFL analogs in solution.
Description: Absorbance was measured at pH 6, 8, and 10: acid (pH 6) gave two bands of similar absorbance; pH 10 gave a single λmax (base). The emission spectra were determined by excitation at the absorbance λmax (base). The wavelength where emission spectra crossed is reported as λiso. The emission λmax was measured at pH 10. pKa was determined from fluorescence emission spectra.
Fluorescence versus pH of various SNAFL free acids were compared using an Ocean Optics USB2000 fiber optic spectrometer and a tungsten halogen light source (part number HL-2000 FHSA). The light source was equipped with a linear variable filter that allowed the wavelength and shape of the excitation beam to be adjusted. The excitation wavelength was adjusted by using a blank cuvette to the absorbance max of the fluorophore (see Table 1). A cuvette holder (part number CUV-FL-DA) was directly attached to the light source and a fiber optic cable directed emitted light to the spectrometer. Excitation conditions are reported for each fluorescence spectrum (3000 msec irradiation at the indicated wavelength). Spectral data were collected on a personal computer using the Ocean Optics software and overlays of different spectra were captured.
SNAFL-1 was purchased as the free carboxylic acid from Molecular Probes in a 1 mg vial. 0.3 mL of isopropyl alcohol and 0.7 mL of water was added to make a 1 mg/mL solution. A molecular weight (MW) of 426 for SNAFL-1 was used to calculate molarity (SNAFL-1=2.35 mM). 4.25 uL of this solution was diluted to 1 mL with various 50 mM phosphate buffers to give 10 micromolar solutions with pH 6-10. 10 micromolar solutions of SNAFL-2 (MW=460) were prepared in a similar fashion. EBIO-1 (MW=523), EBIO-2 (MW=627), and EBIO-3 (MW=489) were obtained as bulk compounds from Epoch Biosciences. 1.6 mg of each solid powder was carefully weighed out and dissolved in 3.2 mL of 40% isopropyl alcohol to give 0.5 mg/mL solutions. Emission spectra were obtained for the various SNAFL and EBIO compounds at pH 6.0, 6.2, 6.4, 6.6, 6.8, 7.0, 8.0 and 10.0. […]
Data set [4] is described as follows: Photobleaching degradation under fluorescent light. It counts as physicochemical. As to the method:
A photobleaching degradation curve for EBIO-3 and BCSI-3 was constructed utilizing fluorescent light exposure and measuring the absorption at 530 nm to quantify functional dye. Identical concentrations of both dyes, 7.9 μM, were exposed to continuous fluorescent light (34 W Philips Hg bulb) from a distance of 16 inches for 3 days. At 73.5 hours the two dyes had degraded 64% and the degradation is within 5.6% of each other.

Data set [5] can be described thus: pKa determination from fluorescence emission spectra of SNAFL free acids. Format: physicochemical. The note with it: 10 μM free acid, 50 mM phosphate buffers. The source says: The pH at which two molecular species (tautomers) are equally represented is defined as the pKa. There are many variables that can affect pKa and methods for measurement are difficult since the structures have overlapping absorbance. Therefore direct comparisons from the literature can vary slightly. The calculations contained herein are based on the assumption that, at pH 10, only the trianionic naphtholate structure is present. The intensity of fluorescence at the emission maxima is divided by 2, and pH of the intersecting pH curve is calculated by interpolation between the nearest 2 curves.

[6] abbreviates: Lee et al. (1989) Cytometry 10, 151-164.

Description for physchem: The pKa of BCSI-3 was determined by an absorbance assay with controlled pH buffers.

As for `O=S1(=O)OC2(c3ccccc31)c1ccc3cc(O)ccc3c1Oc1c2ccc2cc(O)ccc12` [VITABLUE], in data set [1] (setting [6]), the pKa was 7.56.

Take Carboxynaphthofluorescein [CNF]: the pKa in data set [1] (setting [6]) is reported as 7.99; in data set [1] (published values, free or immobilized dye), 7.62.

`O=C(O)CCc1cc2c(-c3ccccc3C(=O)O)c3ccc4cc(O)c(Cl)cc4c3oc-2cc1=O` [EBIO-3] yielded an absorbance maximum in data set [2] of 534 nm. Further, the values for the pKa (in “physchem”; in data set [5]) were 6.61 and 6.6, respectively. Further, the “Absorbance λmax (base)” value in data set [3] (10 μM, pH 10) was 534 nm. The “Emission λmax (base)” value in data set [3] (pH 10, excitation at absorbance λmax (base)) was 610 nm. In data set [3] (wavelength where emission spectra crossed, excitation at absorbance λmax (base)), the “Emission λiso” value was 560 nm. Moreover, the “degraded (reduction in absorbance at 530 nm)” value in data set [4] (73.5 hours continuous fluorescent light, 7.9 μM, pH 7.4 PBS) is recorded as 64%. Besides, the “absorption at 530 nm of control set” value in data set [4] (protected from light) is given as “unchanged”.

The values are drawn from patent US9040307B2, “Fluorescent pH detector system and related methods” (Blood Cell Storage, Inc., priority 2011, dated 2015).
